In PubChem BioAssay AID624113 (National Center for Advancing Translational Sciences (NCATS), 2012):

System: mouse plasma stability, percent remaining
Assay: qHTS Assay for Inhibitors of Bacillus subtilis Sfp phosphopantetheinyl transferase (PPTase): Mouse Plasma Stability
Settings: active compounds read high
Source text: The covalent attachment of a phosphopantetheinyl (4'-PP) arm to a variety of synthases and other proteins is a key posttranslational protein modification. The 4'-PP is installed on the proteins post-translationally from coenzyme A (CoA) on a conserved serine residue by action of phosphopantetheinyl transferase (PPTase) enzymes. Phosphopantetheinylation is essential for synthase activity, and removal of the PPTase gene precludes natural product synthesis in microorganisms, or in the case of fatty acid biosynthesis, renders the organism unviable. PPTase enzymes belong to a distinct structural superfamily. Within bacteria, these enzymes are grouped into two classes based upon primary structure, the AcpS-Type and Sfp-Type PPTases.
Sfp-type PPTases, corresponding to an activator of surfactin production in Bacillus subtilis, are responsible for modifying type I polyketide and nonribosomal peptide synthases of prokaryotes. Sfp-type PPTases are responsible for the activation of a variety of pathogen-associated virulence factors. […]
5 uM of compound is incubated with mouse liver microsome; the reference compounds are verapamil and warfarin. Compounds are incubated and samples are analyzed with LC-MS/MS.

## COc1ccnc(NC(=S)N2CCN(c3ncc(C(F)(F)F)cc3Cl)CC2)c1
  percent remaining: 100%
